Source: US4288341A, “Detergent product containing deodorant compositions” (priority 1978, dated 1981)

Biological target: T1, lipoxidase (EC1.13.1.13) (Glycine max, UniProt P08170)
T1 sequence (P08170 1-839): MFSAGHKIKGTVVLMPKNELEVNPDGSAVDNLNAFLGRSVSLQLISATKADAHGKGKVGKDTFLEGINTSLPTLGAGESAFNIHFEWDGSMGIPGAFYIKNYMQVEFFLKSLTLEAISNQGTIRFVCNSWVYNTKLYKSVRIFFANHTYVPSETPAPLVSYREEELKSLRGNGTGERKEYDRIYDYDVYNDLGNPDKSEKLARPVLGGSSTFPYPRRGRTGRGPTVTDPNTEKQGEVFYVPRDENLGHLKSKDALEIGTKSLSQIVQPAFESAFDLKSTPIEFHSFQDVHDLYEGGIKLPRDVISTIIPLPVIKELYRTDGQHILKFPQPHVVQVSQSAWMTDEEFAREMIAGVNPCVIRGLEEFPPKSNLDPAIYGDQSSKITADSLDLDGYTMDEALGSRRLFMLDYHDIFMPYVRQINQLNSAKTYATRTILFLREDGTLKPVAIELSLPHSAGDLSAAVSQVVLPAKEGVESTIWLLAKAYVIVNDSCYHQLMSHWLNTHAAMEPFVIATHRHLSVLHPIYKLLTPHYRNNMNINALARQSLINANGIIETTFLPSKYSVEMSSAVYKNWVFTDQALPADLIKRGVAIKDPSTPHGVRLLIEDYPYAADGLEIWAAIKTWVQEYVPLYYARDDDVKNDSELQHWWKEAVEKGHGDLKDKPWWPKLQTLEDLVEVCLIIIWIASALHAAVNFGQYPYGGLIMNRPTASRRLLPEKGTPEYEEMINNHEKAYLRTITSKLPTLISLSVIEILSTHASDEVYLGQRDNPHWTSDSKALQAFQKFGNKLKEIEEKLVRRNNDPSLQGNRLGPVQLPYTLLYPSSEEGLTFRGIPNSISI
Assay: Lipoxidase test: inhibition of the oxidation of linoleic acid by lipoxidase
Assay type: biochemical
Settings: test substrate made with 0.5% by weight solution of material in ethanol; borate buffer pH 9.0; OD 234 nm

- LIC (lipoxidase-inhibiting capacity, % inhibition): 16%
Substance: Dimyrcetol
